Tests used:
Format in all cases: cell-based
[1] = system: UACC-62; assay: NCI 60 cell line screen (SRB), Melanoma
[2] = system: ACHN; assay: NCI 60 cell line screen (SRB), Renal Cancer
[3] = system: SN12C; assay: NCI 60 cell line screen (SRB), Renal Cancer
[4] = system: NCI-H460; assay: NCI 60 cell line screen (SRB), Non-Small Cell Lung Cancer
[5] = system: EKVX; assay: as above
[6] = system: HT29; assay: NCI 60 cell line screen (SRB), Colon Cancer
[7] = system: murine keratinocyte cell line PE; assay: Growth inhibition of PE cells, MTT assay; conditions: 100 nanomolar; compared with calcitriol; FIG. 5
Protocol: To determine the inhibitory effect of the compositions of the present invention on cell proliferation, screening assays were performed on a murine keratinocyte cell line PE. Cell line PE was chosen for its particular sensitivity to the induction of omithine decarboxylase (ODC) activity by the extensively characterized tumor promoter TPA. Cell line PE was derived from a papilloma-induced in female SENCAR mice by a standard skin initiation/promotion protocol, see Yuspa, S. H., et al., Carcinogenesis, 7:949-958 (1986). PE cell culture medium consisted of Eagle's minimal essential medium without calcium chloride (Whittaker Bioproducts, Walkersville, Mass.) supplemented with 8% chelexed fetal calf serum and 1% antibiotic-antimycotic (Gibco BRL) and the addition of CaCI2 to 0.05 mM Ca^++
MTT [3-(4,5-dimethylthiazol-2-yl)-2,5-diphenyltetraxolium bromide] was purchased from Sigma Chemical Co. (St. Louis, Mo.), and TPA was supplied by L.C. Services (Woburn, Mass.). L-[^14C]omithine ([…]) was from Amersham/Searle Corp. (Arlington Heights, Ill.). Chemical solvents used in all assays of biological activity were of the highest grade commercially available.
Growth curves, shown in FIG. 5, for PE cells treated with calcitriol and the C-10 carbon-substituted dimers VII-f, VII-g and VII-h generated by assay for the reduction of the tetrazolium-based compound MTT, see Charmichael, et al., Cancer Res., 47:936-942 (1987). A mitochondrial dehydrogenase reduces MTT to a blue formazan product with an absorbance maximum of 505 nm in DMSO; the number of viable cells can thus be determined spectrophotometrically. PE cells were seeded at a density of 5,000 cells/well in 50 IL of medium into 96-well microtiter plates. Twelve hours later, the medium was removed, and cells were treated with 100 μL of fresh medium into which the appropriate amount of calcitriol or analog dissolved in dimethyl sulfoxide (DMSO) had been added, with the concentration of DMSO held constant at 0.1 %. […] At 24-hour intervals following the initial treatment of the cells with compounds, 0.1 mg (50 μL of a 2 mg/mL solution) of MTT was added to each well. After 4 hours, the MTT was removed and DMSO added to dissolve the blue formazan dye. Using a microtiter plate reader, the A505 was then determined and cell number calculated from blank-subtracted absorbance values.

[8] = system: SK-MEL-5; assay: NCI 60 cell line screen (SRB), Melanoma
[9] = system: HOP-62; assay: NCI 60 cell line screen (SRB), Non-Small Cell Lung Cancer
[10] = system: TK-10; assay: NCI 60 cell line screen (SRB), Renal Cancer
[11] = system: OVCAR-8; assay: NCI 60 cell line screen (SRB), Ovarian Cancer
[12] = system: MALME-3M; assay: NCI 60 cell line screen (SRB), Melanoma
[13] = system: PC-3; assay: NCI 60 cell line screen (SRB), Prostate Cancer
[14] = system: SW-620; assay: NCI 60 cell line screen (SRB), Colon Cancer
[15] = system: SR; assay: NCI 60 cell line screen (SRB), Leukemia
[16] = system: NCI-H226; assay: NCI 60 cell line screen (SRB), Non-Small Cell Lung Cancer
[17] = system: HS 578T; assay: NCI 60 cell line screen (SRB), Breast Cancer

Question: Which Log10TGI ([1]; PG=0) does the source give for CC1=C(C=Cc2cccc(C=CC3=C(C)C4CCC(C)C5CCC6(C)OOC45C(O3)O6)c2)OC2OC3(C)CCC4C(C)CCC1C24OO3 (centres unmarked) [VII-f] here?
Answer: Its Log10TGI is >−4.00 log10M.

Question: What about the Log10GI50 ([1]; PG=+50) of the same molecule?
Answer: Its Log10GI50 is −4.90 log10M.

Question: And the Log10GI50 ([1]; Table IV (LC50, PG=−50))?
Answer: The Log10GI50 was >−4.00 log10M.

Question: What about the Log10TGI ([2]; PG=0) of the same molecule?
Answer: Its Log10TGI is >−4.00 log10M.

Question: What about the “Log10 GI50 or LC50 (see conditions)” value ([2]; PG=+50) of the same molecule?
Answer: Its value is −5.71 log10M.

Question: And the “Log10 GI50 or LC50 (see conditions)” value ([2]; Table IV (LC50, PG=−50))?
Answer: Its value is >−4.00 log10M.

Question: And the Log10TGI ([3]; SN12C, PG=0)?
Answer: The Log10TGI was >−4.00 log10M.

Question: What about the Log10GI50 ([3]; SNI2C, PG=+50) of the same molecule?
Answer: Its Log10GI50 is −5.73 log10M.

Question: And the Log10GI50 ([3]; Table IV (LC50, PG=−50), SN12C)?
Answer: The Log10GI50 was >−4.00 log10M.

Question: And the Log10TGI ([4]; PG=0)?
Answer: Its Log10TGI is >−4.00 log10M.

Question: And the “Log10 GI50 or Log10 LC50” value ([4]; PG=+50)?
Answer: Its value is −6.03 log10M.

Question: And the Log10TGI ([5]; PG=0)?
Answer: Its Log10TGI is −4.58 log10M.

Question: And the Log10GI50 ([5]; PG=+50)?
Answer: The Log10GI50 was −6.21 log10M.

Question: And the Log10GI50 ([5]; Table IV (LC50, PG=−50))?
Answer: The Log10GI50 was >−4.00 log10M.

Question: And the Log10TGI ([6]; PG=0)?
Answer: Its Log10TGI is >−4.00 log10M.

Question: What about the Log10GI50 ([6]; PG=+50) of the same molecule?
Answer: Its Log10GI50 is −5.90 log10M.

Question: And the Log10GI50 ([6]; Table IV (LC50, PG=−50))?
Answer: Its Log10GI50 is >−4.00 log10M.

Question: And the “antiproliferative activity in words” value [7]?
Answer: Its value is “at least as antiproliferative as calcitriol”.

Question: And the Log10TGI ([8]; PG=0)?
Answer: The Log10TGI was −4.93 log10M.

Question: What about the “Log10 GI50 or LC50” value ([8]; PG=+50) of the same molecule?
Answer: The value was −5.80 log10M.

Question: And the “Log10 GI50 or LC50” value ([8]; Table IV (LC50, PG=−50))?
Answer: The value was >−4.00 log10M.

Question: And the Log10TGI ([9]; PG=0)?
Answer: The Log10TGI was >−4.00 log10M.

Question: What about the Log10GI50 ([9]; PG=+50) of the same molecule?
Answer: Its Log10GI50 is −5.77 log10M.

Question: And the Log10GI50 ([9]; Table IV (LC50, PG=−50))?
Answer: The Log10GI50 was >−4.00 log10M.

Question: What about the Log10TGI ([10]; PG=0) of the same molecule?
Answer: The Log10TGI was >−4.00 log10M.

Question: What about the Log10GI50 ([10]; PG=+50) of the same molecule?
Answer: Its Log10GI50 is −5.44 log10M.

Question: What about the Log10GI50 ([10]; Table IV (LC50, PG=−50)) of the same molecule?
Answer: Its Log10GI50 is >−4.00 log10M.

Question: And the Log10TGI ([11]; PG=0)?
Answer: Its Log10TGI is −4.21 log10M.

Question: What about the Log10GI50 ([11]; PG=+50) of the same molecule?
Answer: The Log10GI50 was −5.57 log10M.

Question: And the Log10GI50 ([11]; Table IV (LC50, PG=−50))?
Answer: The Log10GI50 was >−4.00 log10M.

Question: What about the Log10TGI ([12]; PG=0) of the same molecule?
Answer: The Log10TGI was −4.82 log10M.

Question: What about the Log10GI50 ([12]; PG=+50) of the same molecule?
Answer: The Log10GI50 was −5.65 log10M.

Question: What about the Log10GI50 ([12]; Table IV (LC50, PG=−50)) of the same molecule?
Answer: The Log10GI50 was >−4.00 log10M.

Question: What about the Log10TGI ([13]; PG=0) of the same molecule?
Answer: Its Log10TGI is >−4.00 log10M.

Question: What about the “Log10 GI50 (PG=+50) or LC50 (PG=−50)” value ([13]; PG=+50) of the same molecule?
Answer: Its value is −6.30 log10M.

Question: What about the “Log10 GI50 (PG=+50) or LC50 (PG=−50)” value ([13]; Table IV (LC50, PG=−50)) of the same molecule?
Answer: Its value is >−4.00 log10M.

Question: What about the Log10TGI ([14]; PG=0) of the same molecule?
Answer: Its Log10TGI is >−4.00 log10M.

Question: And the Log10GI50 ([14]; PG=+50)?
Answer: The Log10GI50 was −5.90 log10M.

Question: And the Log10TGI ([15]; PG=0)?
Answer: Its Log10TGI is −6.19 log10M.

Question: What about the Log10GI50 ([15]; PG=+50) of the same molecule?
Answer: The Log10GI50 was −6.19 log10M.

Question: And the Log10GI50 ([15]; Table IV (LC50, PG=−50))?
Answer: Its Log10GI50 is >−4.00 log10M.

Question: What about the Log10TGI ([16]; PG=0) of the same molecule?
Answer: Its Log10TGI is >−4.00 log10M.

Question: And the Log10GI50 ([16]; PG=+50)?
Answer: Its Log10GI50 is −4.61 log10M.

Question: What about the Log10GI50 ([16]; Table IV (LC50, PG=−50)) of the same molecule?
Answer: Its Log10GI50 is >−4.00 log10M.

Question: And the Log10TGI ([17]; PG=0)?
Answer: Its Log10TGI is −4.31 log10M.

Question: And the Log10GI50 ([17]; PG=+50)?
Answer: The Log10GI50 was −5.94 log10M.

Question: And the Log10GI50 ([17]; Table IV (LC50, PG=−50))?
Answer: Its Log10GI50 is >−4.00 log10M.
